# Data: patent US8974836B2, “Angiogenesis regulating composition and method for regulating angiogenesis” (Air Water, Inc., priority 2009, dated 2015)
# Like-named read-outs stand apart in the source and are kept apart here.
# How the values were obtained:
# [1] = test system: model mice of oxygen-induced retinal angiogenesis; assay: Exemplary experiment 4: nitrite versus general-purpose nitrogen monoxide donor drugs, retinal avascular area; format: in vivo, C57BL/6J mouse
# Method: Preparation of the model mice of oxygen-induced retinal angiogenesis, fluorescent imaging of retinal vessels and a retinal flat-mount were operated according to exemplary experiment 1.
# (§1) Areal ratio of retinal avascular area was calculated pursuant to exemplary experiment 1.
# [2] = test system: model mice of oxygen-induced retinal angiogenesis; assay: Exemplary experiment 3: regulation of retinal angiogenesis, administration from start of angiogenesis (P12); format: in vivo, C57BL/6J mouse; settings: for value of areal ratio of retinal avascular area / value of retinal avascular area: 15 μmol/kg hypodermically once per day P12-P16, average; for reduction of retinal avascular area in comparison with a control group: 15 μmol/kg, administered from the start of retinal angiogenesis (P12)
# Method: For the model mice of oxygen-induced retinal angiogenesis, retinal angiogenesis is induced by providing 75% oxygen followed by breeding in room air during P12-P17.
# Sodium nitrate or sodium nitrite as a test compound was dissolved in physiological saline for injection to prepare a test compound injection of […].
# Preparation of the model mice of oxygen-induced retinal angiogenesis, fluorescent imaging of retinal vessels and a retinal flat-mount were operated according to exemplary experiment 1. However sodium nitrate or sodium nitrite was injected to a cervical region hypodermically once per day in amount of 15 μmol/kg for […] from the 12th day (P12) to the 16th day (P16) after birth. In addition, physiological saline as controls was similarly injected hypodermically instead of test compound for the same period of time.
# as §1
# [3] = Exemplary experiment 6: plasma concentration of nitrate ions after administration; settings: P12, average
# Method: (§2) Sodium nitrate or sodium nitrite as a test compound was dissolved in physiological saline for injection to prepare a test compound injection of […].
# C57BL/6J mouse (SLC) was used as an experimental animal. The model mice of oxygen-induced retinal angiogenesis were prepared according to exemplary experiment 1. […] Thereafter, isoflurane was used to anesthetize the mice, and 150 μl of blood was collected from the abdominal aorta over time. Plasma concentration of nitrate ions was measured by ion exchange chromatography using a normal phase column under the following conditions:
# Conditions for Ion Exchange Chromatography • Separation column: Asahipak NH2P-50 4E (4.6 mm×250 mm) • Guard column: Inertsil NH2 (5 μm) (4 mm×10 mm) • Mobile phase: 10 mM of sodium dihydrogenphosphate, 150 mM of sodium perchlorate, 5.0 • Flow rate: 0.7 ml/min • Detection wavelength: 210 nm
# [4] = test system: model mice of oxygen-induced retinal angiogenesis; assay: Exemplary experiment 2: suppression of pathologic neovascularization (pathological vessels extending into the vitreum); format: in vivo, C57BL/6J mouse; settings: for number of pathological vessels breaking the inner limiting membrane and extending into the vitreum: 15 or 75 μmol/kg once per day P7-P16, P17, FIG. 2, versus physiological saline
# Method: The effect of sodium nitrate and sodium nitrite for suppression of pathologic neovascularization by oxygen-induced retinal vascularized model was evaluated.
# as §2
# C57BL/6J mouse (SLC) was used as an experimental animal. The model mice of oxygen-induced retinal angiogenesis were prepared according to exemplary experiment 1. Sodium nitrate or sodium nitrite was injected to a cervical region hypodermically once per day in amount of 15 or 75 μmol/kg for ten days from the 7th day (P7) to the 16th day (P16) after birth. In addition, physiological saline as controls was similarly injected hypodermically instead of test compound.
# On the 17th day after birth (P17), the mice were euthanised by overdose of pentobarbital, and eyes were removed together with optic nerve. The eyes were washed in physiological saline, excessive tissues were excised, and the eyes were thus fixed in a 4% paraformaldehyde phosphate buffer for 12 hours. After the fixation, the eyes were dehydrated by immersing in a graded ethanol series of 70-100% sequentially and were embedded in paraffin.
# [5] = test system: model mice of oxygen-induced retinal angiogenesis; settings: for retinal avascular area reduced as compared to control group: 15 or 75 μmol/kg once per day P7-P16, versus physiological saline
# Source text: C57BL/6J mouse (SLC) was used as an experimental animal. […] Neonatal mice were bred from the 7th day (P7) to the 12th day (P12) after birth together with a parent mouse in a cage of high levels of oxygen (75±1% of O2) controlled by oxygen control equipment (PRO-OX110, produced by Reming Bioinstruments Co) to provide high levels of oxygen (75±1% of O2). Retinal angiogenesis was induced by breeding under normoxic condition (21% of O2) from the 12th day to the 17th day after birth. […] In addition, physiological saline as controls was similarly injected hypodermically instead of test compound.
# Fifty micro grams per animal of fluorescein-conjugated dextran (FITC-dextran; M.W. 2×10^6, produced by SIGMA) were systemically perfused from the left ventricle under deep anesthesia with pentobarbital on the 17th day after birth (P17). After the perfusion, eyes of mouse were removed and fixed in a 4% paraformaldehyde phosphate buffer for 4-12 hours. After the fixation, the cornea and the lens were excised from eye, and the residual hyaloid artery was removed by micro tweezers. The retina was separated under a microscope, and subsequently set flat and embedded in [sequence] (produced by Vector Laboratories Inc.) for preparation of a retinal flat-mount.
# Flat mounted retinas were imaged with a high sensitivity CCD camera under a fluorescent inverted microscope (Olympus IX71). A value of total retinal area and a value of retinal avascular area in obtained image were converted to numeric data by Photoshop CS4 extended (Adobe), and a value of areal ratio of retinal avascular area in comparison with the value of total retinal area was calculated by the following equation: value of areal ratio of retinal avascular area=value of retinal avascular area (μm^2)/value of total retinal area (μm^2)×100
# [6] = in vivo; cited from earlier work
# [7] = test system: model mice of oxygen-induced retinal angiogenesis; assay: Exemplary experiment 5: nitrite versus anti-VEGF antibody, retinal avascular area; format: in vivo, C57BL/6J mouse; settings: 15 μmol/kg hypodermically once per day P7-P16, average
# Method: Using the model mice of oxygen-induced retinal angiogenesis, a comparison was made about retinopathy treatment effect between nitrite and an anti-VEGF antibody used for treatment of progressive colorectal cancer, age-related macular degeneration and so on.
# Sodium nitrite as a test compound was dissolved in physiological saline for injection to prepare a test compound injection of 3 μmol/ml. For a comparative example, a murine monoclonal anti-VEGF antibody (produced by SANTACRUZ BIOTECHNOLOGY, INC.) was condensed to prepare 500 μg IgG/ml of an injection for the comparative example.
# Preparation of the model mice of oxygen-induced retinal angiogenesis, fluorescent imaging of retinal vessels and a retinal flat-mount were operated according to exemplary experiment 1. Sodium nitrite was injected to a cervical region hypodermically once per day in amount of 15 μmol/kg for ten days from the 7th day (P7) to the 16th day (P16) after birth. The anti-VEGF antibody was injected through the corneal limbus to the vitreous body with a microsyringe equipped with a 33G hypodermic needle, by cutting mice eyelids open when oxygenation ended (on the 12th day alter birth).
# as §1
# methemoglobinemia = settings: reported for Rodentia; cited from earlier work
# [8] = 20 μmol/kg hypodermically once per day P7-P16, average
# [9] = 75 μmol/kg hypodermically once per day P7-P16, evaluated P17, average
# [10] = 15 μmol/kg hypodermically once per day P7-P16, evaluated P17, average
# [11] = 15 μmol/kg hypodermically once per day P7-P16, average
structure (smiles),measurement,setting,value
"O=[N+]([O-])OCC(CO[N+](=O)[O-])O[N+](=O)[O-] [NTG, nitroglycerin]",value of areal ratio of retinal avascular area,[1]; [8],21.36%
same,value of retinal avascular area,[1]; [8],1456421.33 μm^2
same,retinal avascular area increased in comparison with a group administered with nitrite,"[1]; SNP 2 μmol/kg, NTG 20 μmol/kg versus sodium nitrite 15 μmol/kg, P7-P16",approximately 3.3 times
same,"reduction of avascular area (typical symptom of retinopathy), in words","[1]; SNP 2 μmol/kg, NTG 20 μmol/kg, once per day P7-P16",Neither SNP nor NTG was observed to reduce
O=[N+]([O-])[O-].[Na+] [sodium nitrate],value of areal ratio of retinal avascular area,[2],8.76%
same,value of retinal avascular area,[2],506451.72 μm^2
same,reduction of retinal avascular area in comparison with a control group,[2],approximately 40%
same,maximum plasma concentration of nitrate ions after single-dose administration,[3]; 15 μmol/kg subcutaneously in cervical region,135.38 µmol/L
same,maximum plasma concentration of nitrate ions after single-dose administration,[3]; 75 μmol/kg subcutaneously in cervical region,194.9 µmol/L
same,number of pathological vessels breaking the inner limiting membrane and extending into the vitreum,[4],decreased
same,value of areal ratio of retinal avascular area,[5]; [9],12.7%
same,value of retinal avascular area,[5]; [9],842271.02 μm^2
same,retinal avascular area reduced as compared to control group,[5],approximately 20%
same,nitrate having entered systemic circulation secreted in saliva,[6],approximately 25%
same,portion of nitrate in saliva reduced to nitrite by dental bacteria,[6],approximately 30%
O=NO [sodium nitrite],value of areal ratio of retinal avascular area,[2],9.3%
same,value of retinal avascular area,[2],621218.70 μm^2
same,reduction of retinal avascular area in comparison with a control group,[2],approximately 40%
same,value of areal ratio of retinal avascular area,[7],9.3%
same,value of retinal avascular area,[7],621218.70 μm^2
same,value of areal ratio of retinal avascular area,[7]; listed as nitrite,9.3%
same,pathological vessels reduced as compared with a control,"[4]; 75 μmol/kg once per day P7-P16, P17",approximately 30%
same,number of pathological vessels breaking the inner limiting membrane and extending into the vitreum,[4],decreased
same,value of areal ratio of retinal avascular area,[5]; [10],6.44%
same,value of retinal avascular area,[5]; [10],417863.94 μm^2
same,value of areal ratio of retinal avascular area,[5]; [9],10.01%
same,value of retinal avascular area,[5]; [9],571705.28 μm^2
same,retinal avascular area reduced as compared to control group,[5],40-60%
same,value of areal ratio of retinal avascular area,[1]; [11],6.44%
same,value of retinal avascular area,[1]; [11],417863.94 μm^2
same,maximal no-effect dose for methemoglobinemia,methemoglobinemia,84 mg/kg/day
